Measured values as given in patent US9539272B2, “HDAC 6 inhibitor-based methods for treating cancer” (SLOAN-KETTERING INSTITUTE FOR CANCER RESEARCH, priority 2009, dated 2017).

Legend:
[1] = tested on: acetylated tubulin and acetylated histone H3 in A549 cells; conditions: 24 hrs, tubacin 0.2, 2 or 20 μM; cited from earlier work
recombinant human HDAC 6 = target: T1, recombinant human HDAC 6 (Homo sapiens, UniProt Q9UBN7); assay: In vitro HDAC assay with fluorogenic substrate, HDAC 6
T1 sequence (Q9UBN7 1-1215): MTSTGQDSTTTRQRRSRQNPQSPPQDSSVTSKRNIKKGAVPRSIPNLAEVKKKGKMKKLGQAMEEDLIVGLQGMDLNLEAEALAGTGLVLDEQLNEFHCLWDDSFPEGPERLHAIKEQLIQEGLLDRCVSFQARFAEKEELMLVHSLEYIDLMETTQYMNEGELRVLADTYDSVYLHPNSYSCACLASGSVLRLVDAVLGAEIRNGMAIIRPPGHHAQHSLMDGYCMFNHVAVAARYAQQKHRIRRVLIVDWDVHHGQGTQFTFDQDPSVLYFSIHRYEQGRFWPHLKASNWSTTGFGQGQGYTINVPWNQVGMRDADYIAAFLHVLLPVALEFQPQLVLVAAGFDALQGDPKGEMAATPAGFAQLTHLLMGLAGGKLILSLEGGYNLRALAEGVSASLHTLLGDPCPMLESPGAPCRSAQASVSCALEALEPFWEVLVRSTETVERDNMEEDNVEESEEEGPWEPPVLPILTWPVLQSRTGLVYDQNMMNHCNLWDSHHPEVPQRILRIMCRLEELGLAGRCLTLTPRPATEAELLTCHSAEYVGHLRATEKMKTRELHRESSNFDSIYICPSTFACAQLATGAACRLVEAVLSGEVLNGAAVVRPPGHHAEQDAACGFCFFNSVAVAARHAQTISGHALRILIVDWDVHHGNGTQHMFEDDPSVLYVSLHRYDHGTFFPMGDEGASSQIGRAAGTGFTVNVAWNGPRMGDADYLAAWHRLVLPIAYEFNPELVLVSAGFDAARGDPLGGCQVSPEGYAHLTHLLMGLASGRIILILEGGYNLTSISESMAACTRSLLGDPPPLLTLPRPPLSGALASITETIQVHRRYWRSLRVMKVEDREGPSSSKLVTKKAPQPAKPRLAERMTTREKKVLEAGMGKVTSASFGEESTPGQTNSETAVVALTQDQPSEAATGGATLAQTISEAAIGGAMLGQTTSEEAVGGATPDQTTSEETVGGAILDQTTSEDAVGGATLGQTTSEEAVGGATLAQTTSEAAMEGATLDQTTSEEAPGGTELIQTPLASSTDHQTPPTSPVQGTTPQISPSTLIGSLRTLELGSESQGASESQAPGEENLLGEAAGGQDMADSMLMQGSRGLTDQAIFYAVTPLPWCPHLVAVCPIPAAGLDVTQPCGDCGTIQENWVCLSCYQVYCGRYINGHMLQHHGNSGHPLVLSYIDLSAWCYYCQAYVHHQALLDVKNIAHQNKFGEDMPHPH
Description: (§1) Inhibition of HDAC 1 and HDAC 6 were analyzed with a fluorogenic substrate according to manufacture's protocol (HDAC assay reagents were purchased from BPS Biosciences, San Diego, Calif.). 50 μl reaction mixture, which contains 1×HDAC assay buffer, 5 units of recombinant human HDAC1 or HDAC 6, 10 μM substrate 3 and 1 μl inhibitor in DMSO, was incubated at 37° C. for 1 hour. […] The fluorescence intensity was measured at excitation of 360 nm and emission of 460 nm with SpectraMax Gemini XS microplate reader (Molecular Devices, Sunny Calif.).

recombinant human HDAC1 = recombinant human HDAC1 (Homo sapiens, UniProt Q13547); assay: In vitro HDAC assay with fluorogenic substrate, HDAC 1
Chain of recombinant human HDAC1 (Q13547 whole entry): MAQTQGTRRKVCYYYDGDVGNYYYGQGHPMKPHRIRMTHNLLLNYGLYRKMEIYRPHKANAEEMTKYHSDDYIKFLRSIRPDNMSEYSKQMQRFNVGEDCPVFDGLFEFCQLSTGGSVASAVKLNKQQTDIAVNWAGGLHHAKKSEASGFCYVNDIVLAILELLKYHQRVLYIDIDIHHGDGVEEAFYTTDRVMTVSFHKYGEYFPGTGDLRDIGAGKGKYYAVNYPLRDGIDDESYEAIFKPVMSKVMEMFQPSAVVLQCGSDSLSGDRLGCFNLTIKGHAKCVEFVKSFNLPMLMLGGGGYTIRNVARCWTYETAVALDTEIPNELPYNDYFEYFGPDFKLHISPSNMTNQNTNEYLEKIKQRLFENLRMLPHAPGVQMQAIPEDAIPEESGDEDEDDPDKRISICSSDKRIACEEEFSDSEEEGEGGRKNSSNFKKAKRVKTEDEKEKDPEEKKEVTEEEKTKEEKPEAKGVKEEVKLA
Description: as §1

LNCaP cells = assay: Cell growth and viability by trypan blue exclusion, LNCaP; conditions: LNCaP, 8 μM nil-tubacin alone
Description: 5×10^4 cells were seeded per well in a 24-well plate and cultured overnight prior to treating with the compound and/or other agents as indicated for each study. Cells were harvested at 24, 48 and 72 hrs after treatment by trypsin digestion. […] At least three independent analyses were performed for each time point.
To monitor cell growth and viability, cells were seeded in triplicate at 5×10^4 cells in 1 ml of medium in 24-well plates. The drugs were added at the indicated concentrations 24 h after seeding. Cells were harvested by trypsin digestion at 24 h, 48 h and 72 h following drug additions. Cell number and viability were determined by trypan blue exclusion.

## O=C(O)CCCCCCC(=O)Nc1ccc([C@H]2O[C@@H](CSc3nc(-c4ccccc4)c(-c4ccccc4)o3)C[C@@H](c3ccc(CO)cc3)O2)cc1 [niltubacin]
[1]
  accumulation of acetylated histone H3: did not induce accumulation
  accumulation of acetylated tubulin: did not induce the accumulation
Recombinant human HDAC 6
  IC50: > 100 nM
Recombinant human HDAC1
  IC50: > 100 nM
LNCaP cells
  effect on cell growth or cell viability: did not have a detectable effect
